Results reported in patent US10722520B2, “Heterocyclic compounds and their use in preventing or treating bacterial infections” (MUTABILIS, priority 2016, dated 2020).

Tests used:
E. cloacae P99 [1] = assay: MIC of compound alone, broth microdilution; format: cell-based; conditions: strain P99; compound alone
Outline: (§1)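 Step one, log-phase suspension set to 5×10^5 cfu/mL final in CA-MHB. Step two, incubation at 35° C under ambient air for 16-20 h. Step three, visual reading of the lowest growth-free concentration as MIC.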

E. coli 190317 [2] = assay: MIC of compound alone, broth microdilution; format: cell-based; conditions: strain 190317; compound alone
Outline: as §1

K. pneumoniae 6299 [3] = assay: MIC of compound alone, broth microdilution; format: cell-based; conditions: strain 6299; compound alone
Outline: as §1

K. pneumoniae BAA-1898 [4] = assay: MIC of compound alone, broth microdilution; format: cell-based; conditions: strain BAA-1898; compound alone
Outline: as §1

P. aeruginosa CIP107051 [5] = assay: MIC of compound alone, broth microdilution; format: cell-based; conditions: strain CIP107051; compound alone
Outline: as §1

E. cloacae P99 [6] = assay: MIC of ceftazidime (CAZ) at fixed concentration of compound (synergy), broth microdilution; format: cell-based; conditions: strain P99; MIC of CAZ, compound fixed at 4 μg/mL
Method: (§2) Log phase bacterial suspensions were adjusted to a final density of 5×10^5 cfu/mL in cation-adjusted Mueller-Hinton broth (Becton-Dickinson) and added to each well (98 μL). Microplates were incubated for 16-20 h at 35° C. in ambient air. The MIC of the compounds was defined as the lowest concentration of said compounds that prevented bacterial growth as read by visual inspection.

E. coli 190317 [7] = assay: as above; format: cell-based; conditions: strain 190317; MIC of CAZ, compound fixed at 4 μg/mL
Method: as §2

K. pneumoniae 6299 [8] = assay: as above; format: cell-based; conditions: strain 6299; MIC of CAZ, compound fixed at 4 μg/mL
Method: as §2

K. pneumoniae BAA-1898 [9] = assay: as above; format: cell-based; conditions: strain BAA-1898; MIC of CAZ, compound fixed at 4 μg/mL
Method: as §2

P. aeruginosa CIP107051 [10] = assay: as above; format: cell-based; conditions: strain CIP107051; MIC of CAZ, compound fixed at 4 μg/mL
Method: as §2

AmpC (P99) = AmpC (P99) (Enterobacter cloacae, UniProt P05364); conditions: read-out: IC50 β-lactamase AmpC (P99); class (C); nitrocefin 200 μM, 30-min pre-incubation, enzyme 0.2 nM
CMY-37 = CMY-37 (Citrobacter freundii, UniProt P05193); conditions: read-out: IC50 β-lactamase CMY-37; class (C); nitrocefin 200 μM, 30-min pre-incubation, enzyme 0.2 nM
AmpC (PAE) = AmpC (PAE) (Pseudomonas aeruginosa, UniProt P24735); conditions: read-out: IC50 β-lactamase AmpC (PAE); class (C); nitrocefin 200 μM, 30-min pre-incubation, enzyme 0.4 nM
OXA-15 = OXA-15 (Pseudomonas aeruginosa, UniProt Q51574); conditions: read-out: IC50 β-lactamase OXA-15; class (D); nitrocefin 200 μM, 30-min pre-incubation, enzyme 0.4 nM
TEM-1 = TEM-1 (Escherichia coli, UniProt P62593); conditions: read-out: IC50 β-lactamase TEM-1; class (A); nitrocefin 200 μM, 30-min pre-incubation, enzyme 0.1 nM
SHV-1 = SHV-1 (Klebsiella pneumoniae, UniProt P0AD64); conditions: read-out: IC50 β-lactamase SHV-1; class (A); nitrocefin 200 μM, 30-min pre-incubation, enzyme 0.075 nM
CTX-M-15 = CTX-M-15 (Escherichia coli, UniProt Q9EXV5); conditions: read-out: IC50 β-lactamase CTX-M-15; class (A); nitrocefin 200 μM, 30-min pre-incubation, enzyme 0.4 nM
KPC-2 = KPC-2 (Klebsiella pneumoniae, UniProt Q9F663); conditions: read-out: IC50 β-lactamase KPC-2; class (A); nitrocefin 200 μM, 30-min pre-incubation, enzyme 1 nM
OXA-1 = OXA-1 (Escherichia coli, UniProt P13661); conditions: read-out: IC50 β-lactamase OXA-1; class (D); nitrocefin 200 μM, 30-min pre-incubation, enzyme 0.2 nM
OXA-11 = OXA-11 (Pseudomonas aeruginosa, UniProt Q06778); conditions: read-out: IC50 β-lactamase OXA-11; class (D); nitrocefin 200 μM, 30-min pre-incubation, enzyme 1.2 nM
OXA-48 = OXA-48 (Klebsiella pneumoniae, UniProt Q6XEC0); conditions: read-out: IC50 β-lactamase OXA-48; class (D); nitrocefin 200 μM, 30-min pre-incubation, enzyme 0.3 nM

Compound | MIC compounds of the invention alone (E. cloacae P99 [1]) [µg/mL] | MIC compounds of the invention alone (E. coli 190317 [2]) [µg/mL] | MIC compounds of the invention alone (K. pneumoniae 6299 [3]) [µg/mL] | MIC compounds of the invention alone (K. pneumoniae BAA-1898 [4]) [µg/mL] | MIC compounds of the invention alone (P. aeruginosa CIP107051 [5]) [µg/mL] | MIC combination of CAZ and compounds of the invention at 4 μg/mL (E. cloacae P99 [6]) [µg/mL] | MIC combination of CAZ and compounds of the invention at 4 μg/mL (E. coli 190317 [7]) [µg/mL] | MIC combination of CAZ and compounds of the invention at 4 μg/mL (K. pneumoniae 6299 [8]) [µg/mL] | MIC combination of CAZ and compounds of the invention at 4 μg/mL (K. pneumoniae BAA-1898 [9]) [µg/mL] | MIC combination of CAZ and compounds of the invention at 4 μg/mL (P. aeruginosa CIP107051 [10]) [µg/mL] | IC50 (AmpC (P99)) [nM] | IC50 (CMY-37) [nM] | IC50 (AmpC (PAE)) [nM] | IC50 (OXA-15) [nM] | IC50 (TEM-1) [nM] | IC50 (SHV-1) [nM] | IC50 (CTX-M-15) [nM] | IC50 (KPC-2) [nM] | IC50 (OXA-1) [nM] | IC50 (OXA-11) [nM] | also measured
NC(=O)c1cc(F)n(C2=CC3CN(C2)C(=O)N3OS(=O)(=O)[O-])n1.[Na+] (stereo not drawn) [Example 30, sodium (7-oxo-3-(3-carboxamide-5-fluoro-pyrazol-1-yl)-1,6-diazabicyclo[3.2.1]oct-3-en-6-yl) sulfate] | >32 | 32 | >32 | >32 | >32 | 8 | 0.25 | 1 | 2 | 16 | 28 | 99 | 370 | 170 | 0.33 | 2.7 | 1 | 5.3 | 350 | 29 | IC50 (OXA-48): 36 nM
CC(=O)Nc1ccn(C2=CC3CN(C2)C(=O)N3OS(=O)(=O)O)n1.CCN(CC)CC (stereo not drawn) [Example 33, triethylammonium {[3-(N-acetamido)pyrazol-1-yl]-7-oxo-1,6-diazabicyclo[3.2.1]oct-3-en-6-yl}sulfate] | 16 | 8 | 32 | 32 | >32 | 1 | ≤0.25 | 0.25 | 16 | 8 | 7.1 | 3.2 | 32 | 44 | 0.67 | 1.7 | 0.72 | 11 | 68 | 8.4 | IC50 (OXA-48): 3.1 nM
O=C(O)C(F)(F)F.O=C1N2CC(n3ccc(CNc4nccs4)n3)=CC(C2)N1OS(=O)(=O)[O-].[Na+] (stereo not drawn) [Example 35, sodium and 2,2,2-trifluoroacetate [7-oxo-3-[3-(methylene-2-ammoniumthiazole)pyrazol-1-yl]-1,6-diazabicyclo[3.2.1]oct-3-en-6-yl]sulfate] | >32 | 16 | >32 | >32 | >32 | 32 | 0.5 | 32 | 32 | 16 | 12 | 8.1 | 52 | 79 | 0.73 | 3.2 | 0.5 | 13 | 130 | 54 | IC50 (OXA-48): 6 nM
O=C1N2CC(n3cc(N4CCOCC4)cn3)=CC(C2)N1OS(=O)(=O)[O-].[Na+] (stereo not drawn) [Example 20] | >32 | >32 | >32 | >32 | >32 | >128 | 128 | >128 | >128 | >128 | 230 | 140 | 910 | 140 | 1.3 | 5.1 | 3 | 120 | 6200 | 7100 | IC50 (OXA-48): 68 nM
NCc1ccn(C2=CC3CN(C2)C(=O)N3OS(=O)(=O)[O-])n1.O=C(O)C(F)(F)F.[Na+] (stereo not drawn) [Example 49, sodium and 2,2,2-trifluoroacetate [3-[3-(ammoniummethyl)pyrazol-1-yl]-7-oxo-1,6-diazabicyclo[3.2.1]oct-3-en-6-yl]sulfate] | 16 | 2 | >32 | >32 | >32 | ≤0.25 | <0.25 | ≤0.25 | ≤0.25 | 4 | 160 | 150 | 1300 | 510 | 1.2 | 8.5 | 2.6 | 180 | 670 | 380 | IC50 (OXA-48): 46 nM
NCCONC(=O)c1cnn(C2=CC3CN(C2)C(=O)N3OS(=O)(=O)[O-])c1.O=C(O)C(F)(F)F.[Na+] (stereo not drawn) [Example 24, sodium and 2,2,2-trifluoroacetate [7-oxo-3-[4-carboxamide,N-(2-ammoniumethoxy)-pyrazol-1-yl]-1,6-diazabicyclo[3.2.1]oct-3-en-6-yl]sulfate] | 16 | 2 | >32 | >32 | >32 | 0.25 | <0.25 | 0.25 | 1 | 4 | 12 | 16 | 160 | 48 | 0.37 | 2.4 | 0.75 | 5.2 | 76 | 95 | IC50 (OXA-48): 4.6 nM
